Data from patent publication US20230146239A1 (THE SCRIPPS RESEARCH INSTITUTE, priority 2020, published 2023).

Columns and labels:
[1] = tested on: VanA VRE E. faecalis BM 4166 and E. faecium ATCC BAA-2317; conditions: previously reported; C1-vancomycin even at 100 μM; cited from earlier work
[2] = tested on: VanA E. faecalis BM 4166 or ATCC BAA-2573; assay: microbe, parasite or virus in culture; assay type: cell-based; conditions: Enterococcus faecalis, ATCCBAA2573, read-out: MIC, VanA E. faecalis
Source text: (§1) The lowest concentration of antibiotic (in μg/mL) capable of eliminating cell growth in the wells is the reported MIC value.

[3] = tested on: VanA E. faecium (ATCC BAA-2317); conditions: earlier trimethylammonium cation modified analogues; cited from earlier work
[4] = tested on: VanA E. faecium (ATCC BAA-2317); assay: In vitro antimicrobial microdilution assay (MIC); assay type: cell-based, Enterococcus faecium; conditions: Enterococcus faecium, ATCCBAA2317, read-out: MIC, VanA E. faecium ATCC BAA-2317
Source text: as §1

[5] = tested on: VanA E. faecalis (BM 4166); conditions: earlier trimethylammonium cation modified analogues; cited from earlier work

In the case of `CN[C@H](CC(C)C)C(=O)N[C@H]1C(=O)N[C@@H](CC(N)=O)C(=O)N[C@H]2C(=O)NC3C(=O)N[C@H](C(=O)N[C@H](C(=O)NCCC[N+](C)(C)C)c4cc(O)cc(O)c4-c4cc3ccc4O)[C@H](O)c3ccc(c(Cl)c3)Oc3cc2cc(c3OC2OC(CO)C(O)[C@H](O)[C@@H]2O[C@H]2CC(C)(N)[C@H](O)[C@H](C)O2)Oc2ccc(cc2Cl)[C@H]1O` (some centres unmarked) [Compound 3, C1-vancomycin], the “bacterial cell membrane permeabilization” value [1] is given as “weaker”, the MIC [2] is given as 63 µg/mL and the “MIC, VanA E. faecium ATCC BAA-2317” value [3] is given as 31 µg/mL. For the same compound, the MIC [4] was 31 µg/mL and the “MIC, VanA E. faecalis BM 4166” value [5] was 63 µg/mL.
